In PMC4225842 (2014) one finds Kd and binding data, which are given here for three compounds.

In experiment [1] the test system is R13.2 (DNA, aptamer) TGTACCGTCTGAGCGATTCGTACTGTGGGCACCAATCGTACCCAATACTTGCGAATCAGCCAGTCAGTGTTAAGGAGTGC
The experiment in a line: fluorescence saturation binding on magnetic beads. The following applies: 100 mM NaCl, 2 mM MgCl2; immobilised compound (biotinylated bromacil on streptavidin beads); 20 mM Tris-HCl; 5 min.

Experiment [2] has the same test system. Put plainly: competitive elution of labelled DNA from bromacil beads, fluorescence. The note with it: 100 mM NaCl, 2 mM MgCl2, 20 mM Tris-HCl, 0.01% methanol, 1 μM free compound.

The term Kd denotes the constant that tells how readily two partners part at equilibrium. Lower therefore signals higher affinity. For `CCC(C)n1c(=O)[nH]c(C)c(Br)c1=O` (stereo not shown), the Kd in experiment [1] is 9.6 ± 7.8 nM. In addition, the binding result in experiment [2] (100 nM DNA, 0.51 ± 0.16 RFU (blank -0.0045)) is reported as “yes”.
On to `CCNc1nc(Cl)nc(NC(C)C)n1`, for which the binding result in experiment [2] (0.22 ± 0.15 RFU against 0.51 for bromacil) is listed as “weak”.
Take `Cn1ccc(=O)[nH]c1=O`: in experiment [2] (0.28 ± 0.09 RFU against 0.51 for bromacil), the binding entry is given as “weak”.
